The text below walks through data of patent publication US20250290065A1, “METHODS FOR MODULATING HUMAN L1 RETROTRANSPOSONS RNA AND COMPOSITIONS FOR USE THEREIN” (King Abdullah University of Science and Technology, priority 2019, published 2025).

“Also recorded” adds a separate entry of the source.

For one data set, the system named is L1 promoter. As to conditions: Terasaki, et al., PLoS One 2013; cited from earlier work.
Data set [1] deals with Line 1 retrotransposition. As to conditions: Nishikawa et al. 2018; Banuelos-Sanchez et al. 2019; cited from earlier work.
For data set [2], the system named is BAX, IFNa2, IFNb1, IFI44 expression in MSC.
Description: L1 RNA was transfected in differentiating osteoblasts at day 7 using Lipofectamine™ MessengerMAX™ (Invitrogen, USA, Cat. No. LMRNA003) with a modified protocol were a lower RNA amount (10 times less) than recommended was transfected. RFP mRNA (System Bioscience, USA, Cat. No. MR800A-1) was used as negative control.
Real time quantitative polymerase chain reaction (qPCR) was performed with 7900HT Fast Real Time PCR system (Applied Biosystems). Each sample was analyzed in triplicate and normalized with the endogenous control, Ribosomal Protein L13A (RPL13A) for osteogenesis and Tata Binding Protein (TBP) for adipogenesis, for cDNA input concentration. No template and no RT were included as negative controls. For each 15 μl reaction, 10 ng (1 ng for L1) of cDNA was mixed with 1 μM specific primers mix and 7.5 μl of Sybr Select Master mix (#4472908, Life Technologies). The reaction was incubated at 95° C. for 10 minutes, followed by 40 cycles of denaturation at 95° C. for 15 seconds, annealing at 60° C. for 30 seconds and elongation at 72° C. for 30 seconds. Ct values were calculated by 7900HT Fast Real Time PCR RQ manager software (Applied Biosystems) and then normalized as DCt between the gene of interest and the endogenous calibrator. […] In all primer pairs each primer matches a different exon. Amplicons length was 80-130 nucleotides.
Data set [3] has as its system OP patients derived MSC differentiating to osteoblasts. Nature of the data set: L1 RNA transfection of MSC from osteoporotic patients, bone matrix quantification. It counts as cell-based, human. The procedure:
(§1) Cells were washed in PBS and fixed with 4% Paraformaldehyde for 15 minutes. Mineralization was assessed by using the OsteoImage Mineralization Assay (#LOPA503, Lonza) according to manufacturer's indication. Mineralization was quantitatively assayed with GloMax discover plate reader (Promega) with appropriate excitation (492)/emission (520) wavelengths.

Data set [4] deals with differentiating osteoblasts. Nature of the data set: Mineralization assay (OsteoImage) in differentiating osteoblasts. It counts as cell-based, human. As to conditions: 150 μM, after 21 days of differentiation, vs DMSO. As for the experimental part: Bone marrow-derived MSC (#C-12974, PromoCell GmbH, Heidelberg, Germany) were grown in 0.1% gelatin solution (#07903, StemCell)-coated plates until passage 4. Growth medium (#PT-3001, Lonza) was changed every 3 days. Osteogenic differentiation was induced by replacing growth medium with Osteogenic Differentiation Medium (#PT-3002, Lonza) on 70% confluent cells seeded on 1:50 Matrigel (#356237, Corning)-coated plates. Adipogenic differentiation was induced by three cycles of induction/maintenance Adipogenic Differentiation Medium (#PT-3004, Lonza) on post-confluent cells seeded on 1:50 MatMatrigel (#356237, Corning)-coated plates.
as §1

Data set [5] deals with human mesenchymal stem cells. The data set is described as follows: Cell cycle analysis (Propidium Iodide, FACS). The conditions noted are these: 3TC vs DMSO; data not shown. The data set is classed as cell-based. As for the experimental part:
2×105 MSCs were trypsinized for 5 min at 37° C., washed with PBS and 2% BSA, passed through a […] strainer (#352350, Corning) and then fixed at −20° C. for 30 min in 70% ethanol. After washing with PBS and 4% BSA, cells were resuspended in PBS and incubated 1 hour at 37° C. with RNAse. Cells were then washed and resuspended in 100 μl of Flow Cytometry Staining Buffer (R&D System, #FC001). 10 μl of 1 mg/ml Propidium iodide (PI) staining solution (#P3566) was added to the single cell solution, gently mixed, and incubated 5 min in the dark. Cell cycle analysis was performed on BD FACSCanto II Flow Cytometry System, using BD FACSDiva Software.

On to `O=C(O)c1cc(-c2ccc(F)cc2F)ccc1O` [diflunisal], for which, in the data set with L1 promoter, the L1 promoter activity result is “induce L1 promoter activity”.

`CC[C@]1(O)C[C@@H]2CN(CCc3c([nH]c4ccccc34)[C@@](C(=O)OC)(c3cc4c(cc3OC)N(C)[C@H]3[C@@](O)(C(=O)OC)[C@H](OC(C)=O)[C@]5(CC)C=CCN6CC[C@]43[C@@H]65)C2)C1` [vinblastine]: in the data set on L1 promoter, the L1 promoter activity entry was “induce L1 promoter activity”.

With `c1ccc2c(c1)cc1ccc3cccc4ccc2c1c34` [benzo[a]pyrene], the L1 promoter activity result with L1 promoter is “induce L1 promoter activity”.

Regarding `Nc1nc(=O)n([C@@H]2CS[C@H](CO)O2)cc1F` [emtricitabine], the “Line 1 retrotransposition” value in data set [1] was “inhibit Line 1 retrotansposition”.

For `O=C1NC(=S)NC(=O)C1C(=O)Nc1ccccc1` [merbarone], the L1 promoter activity entry in the data set on L1 promoter was “induce L1 promoter activity”.

In the case of `COc1cc(CNC(=O)CCCC/C=C/C(C)C)ccc1O` [Capsaicin], the “Line 1 retrotransposition” value in data set [1] is given as “inhibit Line 1 retrotansposition”.

Regarding “L1 RNA: Cy5-conjugated synthetic full-length human L1 mRNA, in vitro transcribed, capped, 5-methyl-C, Pseudo-U substituted, polyadenylated (TriLink)”, the “induction of apoptosis and Interferon response genes” value in data set [2] is given as “neither apoptosis nor Interferon response genes were induced”. Besides, in data set [3] (in vitro differentiating MSC, all patients tested), the osteoblasts maturation result was “greatly enhanced osteoblasts maturation”. The “bone matrix production / mineralized matrix” value in data set [3] (transfection at day 7 of osteogenesis, three days after transfection, 4 OP patients, vs random RNA) is “restored bone matrix production; also recorded: fully rescued the production of mineralized matrix”.

Regarding `CC1=C(CC(=O)O)c2cc(F)ccc2/C1=C\c1ccc([S+](C)[O-])cc1` (centres unmarked) [sulindac], the L1 promoter activity result in the data set on L1 promoter was “induce L1 promoter activity”.

In the case of `Nc1ccn([C@@H]2CS[C@H](CO)O2)c(=O)n1` [Lamivudine 3TC, Lamivudine], the “mineral deposition (mineralization)” value in data set [4] is −69%; in data set [4] (listed as 3TC), −60%. Besides, the “cell cycle analysis and apoptotic cell number in sub-G1 peak” value in data set [5] is on record as “no significant differences”.

With `NC(=O)c1ccccc1O` [salicylamide], the L1 promoter activity entry with L1 promoter is “induce L1 promoter activity”.

Take `O=C(O)c1ccccc1Nc1cccc(C(F)(F)F)c1` [flufenamic acid]: the L1 promoter activity result with L1 promoter was “induce L1 promoter activity”.

On to `C=C1[C@@H](C)[C@H]2[C@H](Cc3ccccc3)NC(=O)[C@]23[C@H](OC(C)=O)/C=C/[C@@](C)(O)C(=O)[C@@H](C)C/C=C/[C@H]3[C@@H]1O` [cytochalasin D], for which the L1 promoter activity entry in the data set on L1 promoter is “induce L1 promoter activity”.

On to `CC[C@@]1(O)C(=O)OCc2c1cc1n(c2=O)Cc2cc3ccccc3nc2-1` [camptothecin], for which the L1 promoter activity entry with L1 promoter is on record as “induce L1 promoter activity”.
